Data from PubChem BioAssay (NCI).
Values joined by “and” are separate entries in the source; they are usually repeats but may differ in a detail not shown here. Equal entries are not always repeated.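 Cultured in 96-well plates, cells were exposed to test compound for 48 hours across five concentrations. The concentration for 50% growth inhibition is given as GI50. TGI marks complete inhibition of growth.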

Tests used:
Assay in all cases: NCI-60 cell line screen, 48 h
HOP-92 NSCLC = tested on: HOP-92 NSCLC
LOX IMVI melanoma = tested on: LOX IMVI melanoma
OVCAR-3 ovarian = tested on: OVCAR-3 ovarian
MOLT-4 leukemia = tested on: MOLT-4 leukemia
SF-268 CNS = tested on: SF-268 CNS
K-562 leukemia = tested on: K-562 leukemia
SR leukemia = tested on: SR leukemia
COLO 205 colon = tested on: COLO 205 colon
A549 NSCLC = tested on: A549 NSCLC
T-47D breast = tested on: T-47D breast

Row | Compound | TGI (HOP-92 NSCLC) | TGI (LOX IMVI melanoma) [µM] | TGI (OVCAR-3 ovarian) [µM] | TGI (MOLT-4 leukemia) [µM] | TGI (SF-268 CNS) [µM] | TGI (K-562 leukemia) [µM] | TGI (SR leukemia) [µM] | TGI (COLO 205 colon) [µM] | TGI (A549 NSCLC) [µM] | TGI (T-47D breast) [µM] | GI50 (LOX IMVI melanoma) [µM] | GI50 (OVCAR-3 ovarian) [µM] | GI50 (MOLT-4 leukemia) | GI50 (SF-268 CNS) [µM] | GI50 (K-562 leukemia) [µM] | GI50 (SR leukemia) [µM] | GI50 (COLO 205 colon) [µM] | GI50 (A549 NSCLC) [µM] | GI50 (HOP-92 NSCLC) [µM] | GI50 (T-47D breast) [µM]
1 | COc1cc(CCc2ccc(OCCN(C)C)cc2)cc(OC)c1OC | > 100 µM | > 100 | > 100 | > 100 | > 100 | > 100 | > 100 | 38.9 | > 100 | – | – | – | – | – | – | – | – | – | – | –
2 | CCc1cccc(C(C)C)c1NC(=O)C(=O)C(Cc1nc2ccccc2[nH]c1=O)C(=O)OC (stereo not given) | > 100 µM | > 100 | > 100 | > 100 | > 100 | > 100 | > 100 | > 100 | > 100 | – | – | – | – | – | – | – | – | – | – | –
3 | COC(=O)C1CC2(CC3=C1CCCC3)OCCO2 (stereo not given) | > 100 µM | > 100 | > 100 | – | > 100 | > 100 | – | > 100 | > 100 | – | – | – | – | – | – | – | – | – | – | –
4 | Nc1nc(SCc2ccccn2)c2ncn(C3CCCC3)c2n1 | – | > 100 | > 100 | – | > 100 | > 100 | > 100 | > 100 | > 100 | > 100 | – | – | – | – | – | – | – | – | – | –
5 | COc1cc(C2C=C(c3cccc(NC(C)=O)c3)Nc3ncnn32)cc(OC)c1OC (stereo not given) | > 65.1 µM | > 100 | 0.645 | > 100 | > 100 | > 44.1 | – | 1.73 | > 100 | – | 0.596 | 0.236 | 1.65 µM | 0.675 | 0.447 | 0.437 | 0.308 | 6.68 | – | –
6 | Cc1ccc(-[n+]2c3cc(N)c(C)cc3nc3cc(C)c(Nc4ccccc4)cc32)cc1 | 0.556 µM | – | – | 1.69 | – | 2.69 | – | 0.326 | 1.19 | 1.02 | – | – | 0.244 µM | – | 0.0393 | – | 0.0461 | 0.0441 | 0.15 | 0.0886
7 | Cc1cc2c(c(C#N)c1C)NC(=O)CCC2=O | – | – | > 100 | > 100 | – | > 100 | > 100 | > 100 | > 100 | – | – | – | – | – | – | – | – | – | – | –
8 | C=C1C(=O)O[C@H]2[C@H]1CC/C(COC(=O)c1cc3cc(F)ccc3[nH]1)=C\CC[C@@]1(C)O[C@@H]21 | 3.21 µM | 2.46 | 2.66 | 9.23 | 3.3 | 12.1 | 17.6 | 3.37 | 8.73 | – | 1.05 | 1.2 | 2.26 µM | 1.62 | 2.24 | 2.03 | 1.64 | 3.08 | 1.38 | –
9 | CCOc1ccccc1NC(=O)C(=O)CC(=O)c1c(C)n([O-])c2ccccc2[n+]1=O | > 100 µM | > 100 | 75.8 | > 100 | > 100 | > 100 | – | > 100 | > 100 | – | – | – | – | – | – | – | – | – | – | –
10 | O=C(NNc1nc(Cl)nc(N2CCN(C(c3ccccc3)c3ccccc3)CC2)n1)c1ccccc1 | 3.68 µM | 2.94 | 3.13 | 5.13 | 3.33 | > 100 | – | 4.64 | 30.5 | > 100 | 1.54 | 1.65 | 1.66 µM | 1.73 | 0.734 | – | 2.04 | 13.5 | 1.72 | 3.41
11 | CC1=C(C(=O)Nc2c(C)cccc2C)C(c2ccc3c(c2)OCO3)C(C(=O)Nc2c(C)cccc2C)=C(C)N1 | – | 28.1 | 98.6 | 61.5 | 48.5 | 73 | 90.9 | 47.1 | 59 | – | – | – | – | – | – | – | – | – | – | –
12 | O=c1c2ccccc2[nH]c(=S)n1-c1ccc(Br)cc1 | 70 µM | > 100 | > 100 | > 100 | > 100 | > 100 | > 100 | > 100 | > 100 | – | – | – | – | – | – | – | – | – | – | –
13 | CC1OC(OCC2OC(Oc3c(-c4ccc(O)cc4)oc4cc(O)cc(O)c4c3=O)C(OC3OCC(O)(CO)C3O)C(O)C2O)C(O)C(O)C1O (stereo not given) | > 100 µM | > 100 | > 100 | > 100 | > 100 | 74.9 | > 100 | > 100 | > 100 | – | – | – | – | – | – | – | – | – | – | –
14 | Cc1cnc2c(C)ccc([N+](=O)[O-])c2c1NCCCN(C)C | – | > 100 | > 100 | > 100 | > 100 | > 100 | > 100 | > 100 | > 100 | – | – | – | – | – | – | – | – | – | – | –
15 | Cn1c(=O)nc2n(-c3ccc(Cl)cc3)c3ccc(Cl)cc3nc-2c1=O | 25.1 µM | 13.1 | 8.14 | 65.7 | 19.7 | 37.4 | 58 | – | > 100 | – | – | – | – | – | – | – | – | – | – | –
16 | Nc1ccn(CCOC(=O)c2ccccc2)c(=O)n1 | > 100 µM | > 100 | > 100 | – | > 100 | > 100 | – | > 100 | > 100 | – | – | – | – | – | – | – | – | – | – | –
17 | N#Cc1cn(C2OC(CO)C(O)C2O)c2ncnc(N)c12 (stereo not given) | 0.665 µM and 0.182 µM | – | – | – | – | – | > 100 | – | > 450 | – | < 0.01 | – | 0.045 µM and 0.0319 µM | < 0.01 | 0.0175 | – | – | < 0.01 | 0.000461 | –
18 | O=C(Oc1ccc(Cl)cc1Cl)c1ccccc1Nc1ccnc(C(F)(F)F)c1 | 43.4 µM | – | 24.9 | > 100 | 13.6 | 8.51 | > 100 | – | 33.1 | – | – | 11 | > 100 µM | 3.11 | 3.03 | 0.772 | – | 11.1 | 11.6 | –
19 | CC[C@H](C)N(CCN)C(=O)c1cc2ccccc2c(-c2ccccc2Cl)n1 | – | 27.7 | 34 | 24.9 | 7.81 | 12.6 | 28.1 | 17.9 | > 100 | – | – | – | – | – | – | – | – | – | – | –
20 | CC1=C(C(=O)Nc2ccccc2C)C(c2ccccc2)C(C(=O)Nc2ccccc2C)=C(C)N1 | 41.2 µM | 42.6 | > 100 | 53 | > 100 | > 100 | 42.5 | 74.2 | > 100 | – | – | – | – | – | – | – | – | – | – | –
